Test results: US8633246B2, “Omega-3 fatty acids for osteoarthritis” (Hill's Pet Nutrition, Inc., priority 2003, dated 2014)

How the values were obtained:
Assay type in all cases: cell-based, dog
canine cartilage [1] = test: Protein synthesis, 35S-methionine and 35S-cysteine incorporation into cartilage matrix; conditions: no catabolic stimuli
Protocol: (§1) To assess the potential effect of n-3 fatty acids on protein and proteoglycan metabolism in canine cartilage, cultures were set up as described in Example 1 except for the final 4 days of culture, no catabolic stimuli were added (i.e., all “control” cultures). During the final 24 hours of culture (1) ^35SO4, or (ii) ^35S-methionine and ^35S-cysteine, were added to the medium to radiolabel newly synthesized proteoglycans and proteins, respectively. The incorporation of radiolabel into the cartilage matrix was measured at the termination of culture. No attempt was made to quantitate loss of radiolabelled material from the cartilage over the 24-hour labeling period. The mean and standard deviation of the incorporation of ^35SO4 (“PG”) or ^35S-methionine and ^35S-cysteine (“PROT”) as DPM/mg wet weight are shown in Table 5 below, […]

canine cartilage [2] = test: Proteoglycan synthesis, 35SO4 incorporation into cartilage matrix; conditions: no catabolic stimuli
Protocol: as §1

[3] = system: canine articular cartilage explants; test: Glycosaminoglycan (GAG) release from cultured canine cartilage explants
Protocol: This example illustrates the release of glycosaminoglycan elicited by omega-3 fatty acids in cultured canine cartilage tissue.
Articular cartilage was obtained from left and right stifles (both femoral condyles and tibial plateau) of dogs. Cartilage explants cultured for 3 days in medium with 10% fetal bovine serum, then washed 3 times in serum free medium. Explants then cultured for 6 days in serum free medium containing 0, 100 or 300 μg/ml n3 fatty acid (EPA, ALA or DHA). After this period in fatty acid medium, all explants were washed 3 times in fatty acid free/serum free medium. Explants were then cultured individually for 4 days in 1 ml of fatty acid and serum free medium containing no additives (C), 10^−6M retinoic acid (RA) or 50 ng/ml oncostatin M (OSM). Note that not all treatments were possible on all dogs because of cartilage availability. The release of proteoglycan into the medium (μg/mg wet weight) was measured at the termination of culture. In the tables below, the mean and standard deviation of glycosaminoglycan (GAG) release for the triplicate cultures for each of the 4 dogs are given. In addition, the media lactate (μg/mg wet weight) concentrations were given for each treatment.

| SMILES | PROT Mean (incorporation of 35S-methionine and 35S-cysteine) (canine cartilage [1]; 100 μg/ml) [DPM/mg wet weight] | PROT Mean (incorporation of 35S-methionine and 35S-cysteine) (canine cartilage [1]; 300 μg/ml) [DPM/mg wet weight] | PG Mean (incorporation of 35SO4) (canine cartilage [2]; 100 μg/ml) [DPM/mg wet weight] | PG Mean (incorporation of 35SO4) (canine cartilage [2]; 300 μg/ml) [DPM/mg wet weight] | GAG Mean ([3]; Dog 2, C, 100 μg/ml) | GAG Mean ([3]; Dog 2, C, 300 μg/ml) | GAG Mean ([3]; Dog 2, OSM, 100 μg/ml) [μg/mg wet weight] | GAG Mean ([3]; Dog 2, OSM, 300 μg/ml) [μg/mg wet weight] | GAG Mean ([3]; Dog 3, C, 100 μg/ml) [μg/mg wet weight] | GAG Mean ([3]; Dog 3, C, 300 μg/ml) [μg/mg wet weight] | GAG Mean ([3]; Dog 3, OSM, 100 μg/ml) [μg/mg wet weight] | GAG Mean ([3]; Dog 3, OSM, 300 μg/ml) [μg/mg wet weight] | GAG Mean ([3]; Dog 3, RA, 100 μg/ml) [μg/mg wet weight] | GAG Mean ([3]; Dog 3, RA, 300 μg/ml) [μg/mg wet weight] | GAG Mean ([3]; Dog 4, C, 100 μg/ml) [μg/mg wet weight] | GAG Mean ([3]; Dog 4, C, 300 μg/ml) [μg/mg wet weight] | GAG Mean ([3]; Dog 4, OSM, 100 μg/ml) [μg/mg wet weight] | GAG Mean ([3]; Dog 4, OSM, 300 μg/ml) [μg/mg wet weight] | GAG Mean ([3]; Dog 4, RA, 100 μg/ml) [μg/mg wet weight] | GAG Mean ([3]; Dog 4, RA, 300 μg/ml) [μg/mg wet weight] | also measured |
| --- | --- | --- | --- | --- | --- | --- | --- | --- | --- | --- | --- | --- | --- | --- | --- | --- | --- | --- | --- | --- | --- |
| CC/C=C\C/C=C\C/C=C\CCCCCCCC(=O)O [ALA, alpha-linolenic acid] | 503.667 | 393.667 | 246.333 | 443.0 | 1.12 μg/mg wet weight | .993 μg/mg wet weight | 8.497 | 6.42 | 2.117 | 2.447 | 22.033 | 23.467 | 20.44 | 24.467 | 2.103 | 1.533 | 11.7 | 19.557 | 12.547 | 14.093 | change in GAG release ([3]; Dog 2, OSM treated cultures): not ALA or DHA significantly decreased |
| CC/C=C\C/C=C\C/C=C\C/C=C\C/C=C\C/C=C\CCC(=O)O [DHA, Docosahexaenoic acid] | 503.667 | 564.333 | 156.0 | 123.333 | .640 μg/mg wet weight | .843 μg/mg wet weight | 8.567 | 6.073 | 1.903 | 1.55 | 11.667 | 11.630 | 21.093 | 19.457 | 2.343 | 2.307 | 24.967 | 16.4 | 11.28 | 11.3 |  |
| CC/C=C\C/C=C\C/C=C\C/C=C\C/C=C\CCCC(=O)O [EPA, Eicosapentaenoic acid] | 442.0 | 504.0 | 537.333 | 275.667 | .340 μg/mg wet weight | .573 μg/mg wet weight | 5.25 | 2.83 | 1.673 | 1.567 | 17.85 | 8.1 | 16.223 | 1.537 | 2.687 | 2.1 | 15.883 | 13.493 | 14.393 | 9.093 | GAG Mean ([3]; Dog 1, C (no additives), 100 μg/ml): 1.590 μg/mg wet weight; GAG Mean ([3]; Dog 1, C (no additives), 300 μg/ml): 1.036 μg/mg wet weight; GAG Mean ([3]; Dog 1, OSM (50 ng/ml oncostatin M), 100 μg/ml): 6.293 μg/mg wet weight; GAG Mean ([3]; Dog 1, OSM, 300 μg/ml): 2.167 μg/mg wet weight; GAG Mean ([3]; Dog 1, RA (10^−6M retinoic acid), 100 μg/ml): 8.677 μg/mg wet weight; GAG Mean ([3]; Dog 1, RA, 300 μg/ml): 1.593 μg/mg wet weight |
